Read-outs that look alike come from different tables or passages of the source.
How the values were obtained:
platelets [1] = conditions: for Platelet deformation along the axis of maximum extension, normalized to the original length: platelets treated with 0.4% paraformaldehyde, 1 MHz
Experimental: Gel filtered platelets were prepared as previously described, from whole blood drawn from aspirin and non-steroidal anti-inflammatory medication free volunteers providing informed consent (Sheriff, J., et al., High-shear stress sensitizes platelets to subsequent low-shear conditions. Ann Biomed Eng, 2010. 38(4): p. 1442-50).
A 127 μm-thick hollow polymer spacer was placed on top of the chip to create a fluid chamber and the chip was covered with a coverslip for microscopic observation. All chip glass surfaces were coated with Sigmacote (Sigma-Aldrich, MO, USA) and rinsed with D.I. water to prevent surface-induced platelet activation.
To visualize platelets they were first exposed to Alexa Fluor 594 conjugated wheat germ agglutinin (1 μg/mL, 10 mins, 37° C., Invitrogen, CA). Platelets were then diluted 100-200 fold (v/v) in isotonic buffer (Pommer, M. S., et al., Dielectrophoretic separation of platelets from diluted whole blood in microfluidic channels. Electrophoresis, 2008. 29(6): p. 1213-8) containing 8.5% w/v sucrose and 0.3% w/v dextrose until the medium conductivity reached ˜1500/cm. as measured by a Jenway 4520 conductivity meter (Jenway, Staffordshire, UK). 50 μl of the diluted platelets sample were pipetted into the fluid chamber of the microelectrode chip. An alternating electric current in a sine wave pattern was generated across the microelectrodes using a function generator (332220A, Agilent, CA,) connected to a wideband power amplifier (7600M, Krohn-hite, MA). The amplitude of applied voltage was monitor via digital oscilloscope (GDS-1102, GW Instek, CA). The sample chip was imaged via fluorescence microscopy (Eclipse E800, 100× oil, Nikon, N.Y.), images were captured via CCD (Sensicam 12bt CCD camera, Cooke Corporation, MI), processed and quantified using NIH Image J software.
In the studies, platelet deformations under sequential increase of applied voltage, from 0 to 90Vpk-pk at 15V steps, were measured at a frequency of 1 MHz and the result is shown in FIG. 4A. […] Images of deformed platelets were captured in a duration ˜5s.

platelets [2] = experiment: Platelet activation assay: cell surface expression of P-selectin by immunofluorescence; type: cell-based, human; conditions: 0.125 μM thrombin, 10 mins, 37° C.; mean ± standard error, >70 platelets
From the text: (§1) Platelet activation level was quantified via cell surface expression of P-selectin utilizing immunohistochemical staining (Hsulin, S. C., et al., A Platelet Membrane-Protein Expressed during Platelet Activation and Secretion-Studies Using a Monoclonal Antibody Specific for Thrombin-Activated Platelets. Journal of Biological Chemistry, 1984. 259(14): p. 9121-9126; Berman, C. L., et al., A Platelet Alpha Granule Membrane-Protein That Is Associated with the Plasma-Membrane after Activation-Characterization and Subcellular-Localization of Platelet Activation Dependent Granule-External Membrane-Protein. Journal of Clinical Investigation, 1986. 78(1): p. […] Platelets were paraformaldehyde fixed (3%, 20 mins) rinsed and incubated (30 min., 37° C.) with FITC Mouse Anti-Human CD62P (50 μl, 1:5 (v/v) dilution in PBS, BD Biosciences, CA) and imaged using fluorescence microscopy. Fluorescence intensity levels were measured following background subtraction. […] Activation of the positive and negative controls was also quantified via the chemically modified prothrombin-based platelet activation state (PAS) assay (Jesty, J. and D. Bluestein, Acetylated prothrombin as a substrate in the measurement of the procoagulant activity of platelets: Elimination of the feedback activation of platelets by thrombin. Analytical Biochemistry, 1999. 272(1): p. 64-70.).

platelets [3] = experiment: Chemically modified prothrombin-based platelet activation state (PAS) assay; type: cell-based, human; conditions: 0.125 μM thrombin, 10 mins, 37° C.
From the text: as §1

Substance | Decrease in deformation compared to untreated platelets (platelets [1]; 0.4% paraformaldehyde, 90Vpk-pk applied voltage, p-value=0.0002) [times] | Young's modulus of platelets (slope of linear fitted stress-deformation curve) (platelets [1]; platelets treated by 0.4% paraformaldehyde, stress from Maxwell stress tensor simulation) | Platelet deformation along the axis of maximum extension, normalized to the original length (platelets [1]; applied voltage 15 V) [%] | Platelet deformation along the axis of maximum extension, normalized to the original length (platelets [1]; applied voltage 90 V) [%] | P-selectin expression, averaged fluorescence intensity level (platelets [2]) | Platelet activation level (PAS assay) (platelets [3]) [%]
paraformaldehyde | 2.75 | 8.5+/−1.5 kPa | 0.73±1.33 | 4.90±1.98 |  | 
thrombin |  |  |  |  | 1526.15±75.04 | 24.7
